Data published in the supplement of paper PMC10307832.

Columns and labels:
Assay in all cases: relative viability (nuclei count vs DMSO), 5 days (fraction); higher = more cells survive
[1] = system: NCI-H1993
Procedure, shortened: (§1)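 The day after seeding in 1536-well plates, lung cancer cell lines were treated by pin tool with a single drug, or with a fixed anchor-drug dose together with five library-drug doses (not always all listed) in √10 steps. After 5 days, a combined fix-and-stain solution (final 0.05% Triton X-100, 1% formaldehyde, 1 ug/ml Hoechst) was added. Nuclei counted on 4× images gave relative viability as treated counts over vehicle counts, reported as the median of duplicate plates.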

[2] = system: NCI-H1395
Procedure, shortened: as §1

[3] = system: LU99A
Procedure, shortened: as §1

[4] = system: CAL-12T
Procedure, shortened: as §1

[5] = system: PC-3 [JPC-3]
Procedure, shortened: as §1

[6] = system: LC-2-ad
Procedure, shortened: as §1

[7] = system: NCI-H1944
Procedure, shortened: as §1

[8] = system: NCI-H3122
Procedure, shortened: as §1

[9] = system: NCI-H1734
Procedure, shortened: as §1

[10] = system: HCC-15
Procedure, shortened: as §1

[11] = system: HARA
Procedure, shortened: as §1

[12] = system: PC-14
Procedure, shortened: as §1

[13] = system: NCI-H838
Procedure, shortened: as §1

[14] = system: HCC-366
Procedure, shortened: as §1

[15] = system: NCI-H1666
Procedure, shortened: as §1

[16] = system: NCI-H1975
Procedure, shortened: as §1

[17] = system: H3255
Procedure, shortened: as §1

[18] = system: NCI-H647
Procedure, shortened: as §1

[19] = system: NCI-H522
Procedure, shortened: as §1

Structure (SMILES): COCC1(CO)C(=O)C2CCN1CC2 (configuration not stated) [PRIMA-1MET] + NC(=O)Nc1cc(-c2cccc(F)c2)sc1C(=O)N[C@H]1CCCNC1 [AZD7762] (partner 0.2 µM)
- relative viability ([1]; first compound 0.2 µM): 0.476
- relative viability ([1]; first compound 2 µM): 0.726
- relative viability ([1]; first compound 6.325 µM): 0.783
- relative viability ([1]; first compound 20 µM): 0.716
- relative viability ([2]; first compound 0.2 µM): 0.376
- relative viability ([2]; first compound 2 µM): 0.385
- relative viability ([2]; first compound 6.325 µM): 0.38
- relative viability ([2]; first compound 20 µM): 0.129
- relative viability ([3]; first compound 0.2 µM): 0.548
- relative viability ([3]; first compound 0.6325 µM): 0.167
- relative viability ([3]; first compound 2 µM): 0.443
- relative viability ([3]; first compound 6.325 µM): 0.361
- relative viability ([3]; first compound 20 µM): 0.0555
- relative viability ([4]; first compound 0.2 µM): 0.603
- relative viability ([4]; first compound 2 µM): 0.6
- relative viability ([4]; first compound 6.325 µM): 0.777
- relative viability ([4]; first compound 20 µM): 0.601
- relative viability ([5]; first compound 0.2 µM): 1
- relative viability ([5]; first compound 0.6325 µM): 0.797
- relative viability ([5]; first compound 2 µM): 0.811
- relative viability ([5]; first compound 6.325 µM): 0.904
- relative viability ([5]; first compound 20 µM): 0.672
- relative viability ([6]; first compound 0.2 µM): 0.968
- relative viability ([6]; first compound 0.6325 µM): 0.806
- relative viability ([6]; first compound 2 µM): 0.669
- relative viability ([6]; first compound 6.325 µM): 0.932
- relative viability ([6]; first compound 20 µM): 0.791
- relative viability ([7]; first compound 0.2 µM): 0.661
- relative viability ([7]; first compound 0.6325 µM): 0.43
- relative viability ([7]; first compound 2 µM): 0.381
- relative viability ([7]; first compound 6.325 µM): 0.533
- relative viability ([7]; first compound 20 µM): 0.511
- relative viability ([8]; first compound 0.2 µM): 0.854
- relative viability ([8]; first compound 0.6325 µM): 0.911
- relative viability ([8]; first compound 2 µM): 0.985
- relative viability ([8]; first compound 6.325 µM): 0.95
- relative viability ([8]; first compound 20 µM): 0.879
- relative viability ([9]; first compound 0.2 µM): 0.52
- relative viability ([9]; first compound 0.6325 µM): 0.538
- relative viability ([9]; first compound 2 µM): 0.685
- relative viability ([9]; first compound 6.325 µM): 0.452
- relative viability ([9]; first compound 20 µM): 0.0452
- relative viability ([10]; first compound 0.2 µM): 1.17
- relative viability ([10]; first compound 0.6325 µM): 1.22
- relative viability ([10]; first compound 2 µM): 1.4
- relative viability ([10]; first compound 6.325 µM): 1.26
- relative viability ([10]; first compound 20 µM): 1.16
- relative viability ([11]; first compound 0.2 µM): 0.308
- relative viability ([11]; first compound 0.6325 µM): 0.265
- relative viability ([11]; first compound 2 µM): 0.493
- relative viability ([11]; first compound 6.325 µM): 0.333
- relative viability ([11]; first compound 20 µM): 0.254
- relative viability ([12]; first compound 0.2 µM): 0.407
- relative viability ([12]; first compound 0.6325 µM): 0.386
- relative viability ([12]; first compound 2 µM): 0.319
- relative viability ([12]; first compound 6.325 µM): 0.387
- relative viability ([12]; first compound 20 µM): 0.178
- relative viability ([13]; first compound 0.2 µM): 0.989
- relative viability ([13]; first compound 0.6325 µM): 0.88
- relative viability ([13]; first compound 2 µM): 0.9
- relative viability ([13]; first compound 6.325 µM): 1.05
- relative viability ([13]; first compound 20 µM): 0.849
- relative viability ([14]; first compound 0.2 µM): 0.3
- relative viability ([14]; first compound 0.6325 µM): 0.186
- relative viability ([14]; first compound 2 µM): 0.223
- relative viability ([14]; first compound 6.325 µM): 0.281
- relative viability ([14]; first compound 20 µM): 0.168
- relative viability ([15]; first compound 0.2 µM): 0.841
- relative viability ([15]; first compound 0.6325 µM): 0.688
- relative viability ([15]; first compound 2 µM): 0.798
- relative viability ([15]; first compound 6.325 µM): 0.817
- relative viability ([15]; first compound 20 µM): 0.728
- relative viability ([16]; first compound 0.2 µM): 0.807
- relative viability ([16]; first compound 0.6325 µM): 0.648
- relative viability ([16]; first compound 2 µM): 0.651
- relative viability ([16]; first compound 6.325 µM): 0.811
- relative viability ([16]; first compound 20 µM): 0.181
- relative viability ([17]; first compound 0.2 µM): 0.945
- relative viability ([17]; first compound 0.6325 µM): 0.873
- relative viability ([17]; first compound 2 µM): 0.955
- relative viability ([17]; first compound 6.325 µM): 1.06
- relative viability ([17]; first compound 20 µM): 0.775
- relative viability ([18]; first compound 0.2 µM): 0.578
- relative viability ([18]; first compound 0.6325 µM): 0.434
- relative viability ([18]; first compound 2 µM): 0.38
- relative viability ([18]; first compound 6.325 µM): 0.383
- relative viability ([18]; first compound 20 µM): 0.137
- relative viability ([19]; first compound 0.2 µM): 0.788
- relative viability ([19]; first compound 0.6325 µM): 0.823
- relative viability ([19]; first compound 2 µM): 0.838
- relative viability ([19]; first compound 6.325 µM): 0.598
- relative viability ([19]; first compound 20 µM): 0.283
